Experimental data published in patent US20150087627A1, “COMBINATION OF KINASE INHIBITORS AND USES THEREOF” (Intellikine LLC, priority 2011, published 2015).
Like-named read-outs stand apart in the source and are kept apart here.

What was measured:
Assay type in all cases: biochemical
PI3K γ (p110γ) = target: T1, PI3K γ (p110γ) (Homo sapiens, UniProt P48736); assay: PI 3-Kinase (human) HTRF assay, PI3K γ; conditions: read-out: PI3K γ IC50
T1 construct: purchased Upstate / Millipore Corporation

PI3K β (p110β/p85α) = target: T2, PI3K β (p110β/p85α) (Homo sapiens, UniProt P42338); assay: PI 3-Kinase (human) HTRF assay, PI3K β; conditions: read-out: PI3K β IC50
T2 construct: purchased Upstate / Millipore Corporation
T2 sequence (P42338 whole entry): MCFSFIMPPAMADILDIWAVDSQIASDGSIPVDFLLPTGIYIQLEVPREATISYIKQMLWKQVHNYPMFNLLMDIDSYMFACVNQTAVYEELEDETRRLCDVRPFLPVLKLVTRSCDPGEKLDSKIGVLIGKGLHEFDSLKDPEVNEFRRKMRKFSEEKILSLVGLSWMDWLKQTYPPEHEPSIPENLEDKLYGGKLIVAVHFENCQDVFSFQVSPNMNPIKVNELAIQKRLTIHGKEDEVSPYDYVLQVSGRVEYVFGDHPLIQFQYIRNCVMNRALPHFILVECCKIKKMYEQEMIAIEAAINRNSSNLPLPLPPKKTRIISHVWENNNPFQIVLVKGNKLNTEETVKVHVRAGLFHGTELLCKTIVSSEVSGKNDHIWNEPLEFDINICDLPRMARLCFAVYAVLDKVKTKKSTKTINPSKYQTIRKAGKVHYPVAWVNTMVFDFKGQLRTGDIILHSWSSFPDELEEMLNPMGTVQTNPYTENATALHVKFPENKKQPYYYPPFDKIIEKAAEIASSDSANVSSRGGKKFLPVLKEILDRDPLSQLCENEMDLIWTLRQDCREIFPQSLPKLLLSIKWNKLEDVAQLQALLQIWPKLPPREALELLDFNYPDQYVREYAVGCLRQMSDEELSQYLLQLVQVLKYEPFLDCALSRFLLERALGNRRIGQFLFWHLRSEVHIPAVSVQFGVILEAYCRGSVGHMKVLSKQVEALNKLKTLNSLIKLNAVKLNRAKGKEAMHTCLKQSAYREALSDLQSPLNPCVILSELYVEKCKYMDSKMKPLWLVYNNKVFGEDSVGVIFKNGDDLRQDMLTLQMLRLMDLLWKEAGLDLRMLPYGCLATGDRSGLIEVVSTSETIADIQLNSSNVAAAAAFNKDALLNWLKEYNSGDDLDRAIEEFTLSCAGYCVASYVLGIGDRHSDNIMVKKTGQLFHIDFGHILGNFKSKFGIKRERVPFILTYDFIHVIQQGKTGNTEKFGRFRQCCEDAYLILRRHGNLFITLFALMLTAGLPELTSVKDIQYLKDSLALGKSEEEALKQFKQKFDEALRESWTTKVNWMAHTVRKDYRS
T2 sequence (P27986 whole entry partner): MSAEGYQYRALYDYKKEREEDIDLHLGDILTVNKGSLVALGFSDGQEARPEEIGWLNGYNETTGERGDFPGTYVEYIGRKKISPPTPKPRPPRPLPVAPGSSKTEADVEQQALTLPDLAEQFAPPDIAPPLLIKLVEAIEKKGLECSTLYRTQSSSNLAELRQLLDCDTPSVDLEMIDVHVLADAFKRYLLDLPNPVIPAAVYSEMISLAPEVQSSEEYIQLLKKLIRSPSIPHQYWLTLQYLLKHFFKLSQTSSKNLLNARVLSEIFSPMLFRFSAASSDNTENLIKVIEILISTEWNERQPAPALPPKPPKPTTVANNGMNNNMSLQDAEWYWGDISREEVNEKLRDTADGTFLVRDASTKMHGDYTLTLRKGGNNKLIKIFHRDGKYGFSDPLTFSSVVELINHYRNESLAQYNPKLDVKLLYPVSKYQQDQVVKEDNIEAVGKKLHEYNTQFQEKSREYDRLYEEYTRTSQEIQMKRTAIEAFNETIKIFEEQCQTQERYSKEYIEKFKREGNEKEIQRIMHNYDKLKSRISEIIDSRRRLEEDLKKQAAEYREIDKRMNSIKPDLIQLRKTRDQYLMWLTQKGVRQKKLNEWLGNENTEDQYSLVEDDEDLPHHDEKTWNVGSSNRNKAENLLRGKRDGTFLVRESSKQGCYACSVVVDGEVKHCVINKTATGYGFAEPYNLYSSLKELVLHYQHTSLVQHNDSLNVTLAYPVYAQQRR

PI3K α (p110α/p85α) = target: T3, PI3K α (p110α/p85α) (Homo sapiens, UniProt P42336); assay: PI 3-Kinase (human) HTRF assay, PI3K α; conditions: read-out: PI3K α IC50
T3 construct: purchased Upstate / Millipore Corporation
T3 sequence (P42336 whole entry): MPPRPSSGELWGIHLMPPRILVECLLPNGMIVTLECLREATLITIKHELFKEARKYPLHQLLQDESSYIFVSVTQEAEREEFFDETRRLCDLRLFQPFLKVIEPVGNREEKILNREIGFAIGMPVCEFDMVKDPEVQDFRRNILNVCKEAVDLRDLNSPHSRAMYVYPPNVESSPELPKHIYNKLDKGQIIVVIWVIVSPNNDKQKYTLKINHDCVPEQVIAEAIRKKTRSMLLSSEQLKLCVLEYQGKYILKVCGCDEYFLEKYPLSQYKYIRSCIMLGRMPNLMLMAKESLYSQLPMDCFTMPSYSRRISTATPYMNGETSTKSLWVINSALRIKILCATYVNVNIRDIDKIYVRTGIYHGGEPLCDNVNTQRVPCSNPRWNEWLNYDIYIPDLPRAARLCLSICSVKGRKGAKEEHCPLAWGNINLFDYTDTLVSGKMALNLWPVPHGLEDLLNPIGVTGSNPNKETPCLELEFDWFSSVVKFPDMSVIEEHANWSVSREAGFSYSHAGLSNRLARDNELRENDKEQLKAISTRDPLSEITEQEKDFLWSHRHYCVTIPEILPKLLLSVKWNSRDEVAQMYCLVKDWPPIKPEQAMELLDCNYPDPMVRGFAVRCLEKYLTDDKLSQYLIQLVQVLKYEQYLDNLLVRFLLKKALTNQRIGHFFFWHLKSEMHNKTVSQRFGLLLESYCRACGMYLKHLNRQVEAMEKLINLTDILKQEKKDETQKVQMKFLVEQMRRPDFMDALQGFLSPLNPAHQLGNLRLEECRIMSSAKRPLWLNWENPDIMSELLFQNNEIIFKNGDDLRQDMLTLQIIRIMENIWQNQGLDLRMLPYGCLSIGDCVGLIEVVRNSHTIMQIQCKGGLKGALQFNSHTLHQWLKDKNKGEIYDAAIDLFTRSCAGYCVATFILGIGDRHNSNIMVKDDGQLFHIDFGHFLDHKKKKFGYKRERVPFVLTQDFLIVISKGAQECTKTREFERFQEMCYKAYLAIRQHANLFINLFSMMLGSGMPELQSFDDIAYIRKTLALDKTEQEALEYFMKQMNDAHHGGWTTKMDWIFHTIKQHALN
T3 sequence (P27986 whole entry partner): as the sequence (P27986 whole entry partner) above

PI3K δ = target: T4, PI3K δ (Homo sapiens, UniProt O00329); assay: PI 3-Kinase (human) HTRF assay, PI3K δ; conditions: read-out: PI3K δ IC50
T4 construct: purchased Upstate / Millipore Corporation
T4 sequence (O00329 whole entry): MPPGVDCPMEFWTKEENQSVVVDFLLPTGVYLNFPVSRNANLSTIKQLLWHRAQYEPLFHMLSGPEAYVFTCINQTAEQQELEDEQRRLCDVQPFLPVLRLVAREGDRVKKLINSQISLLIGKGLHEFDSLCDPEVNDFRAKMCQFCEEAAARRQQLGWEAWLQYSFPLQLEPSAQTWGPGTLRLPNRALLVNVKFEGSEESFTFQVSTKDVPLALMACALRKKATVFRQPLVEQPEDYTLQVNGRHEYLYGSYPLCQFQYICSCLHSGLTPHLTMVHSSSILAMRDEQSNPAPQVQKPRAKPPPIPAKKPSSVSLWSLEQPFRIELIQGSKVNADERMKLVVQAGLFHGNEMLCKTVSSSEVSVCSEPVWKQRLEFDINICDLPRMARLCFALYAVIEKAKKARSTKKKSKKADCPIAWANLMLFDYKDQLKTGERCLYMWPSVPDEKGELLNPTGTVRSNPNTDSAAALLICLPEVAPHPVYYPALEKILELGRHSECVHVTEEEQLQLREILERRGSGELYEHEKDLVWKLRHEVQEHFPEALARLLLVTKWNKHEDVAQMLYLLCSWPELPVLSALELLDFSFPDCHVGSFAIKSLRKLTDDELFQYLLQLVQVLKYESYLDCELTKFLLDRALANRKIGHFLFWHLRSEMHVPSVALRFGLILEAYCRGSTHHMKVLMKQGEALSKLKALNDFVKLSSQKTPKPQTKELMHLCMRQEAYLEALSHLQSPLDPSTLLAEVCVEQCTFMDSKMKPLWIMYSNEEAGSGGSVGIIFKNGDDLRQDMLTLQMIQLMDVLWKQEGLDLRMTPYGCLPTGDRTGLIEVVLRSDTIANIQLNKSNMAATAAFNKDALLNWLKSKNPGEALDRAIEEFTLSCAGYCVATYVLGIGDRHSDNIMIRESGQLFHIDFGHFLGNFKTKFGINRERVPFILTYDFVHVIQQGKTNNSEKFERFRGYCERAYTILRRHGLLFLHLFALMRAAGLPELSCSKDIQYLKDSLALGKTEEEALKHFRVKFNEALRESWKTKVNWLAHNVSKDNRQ
T4 sequence (P27986 whole entry partner): as the sequence (P27986 whole entry partner) above

T1 sequence (P48736 whole entry): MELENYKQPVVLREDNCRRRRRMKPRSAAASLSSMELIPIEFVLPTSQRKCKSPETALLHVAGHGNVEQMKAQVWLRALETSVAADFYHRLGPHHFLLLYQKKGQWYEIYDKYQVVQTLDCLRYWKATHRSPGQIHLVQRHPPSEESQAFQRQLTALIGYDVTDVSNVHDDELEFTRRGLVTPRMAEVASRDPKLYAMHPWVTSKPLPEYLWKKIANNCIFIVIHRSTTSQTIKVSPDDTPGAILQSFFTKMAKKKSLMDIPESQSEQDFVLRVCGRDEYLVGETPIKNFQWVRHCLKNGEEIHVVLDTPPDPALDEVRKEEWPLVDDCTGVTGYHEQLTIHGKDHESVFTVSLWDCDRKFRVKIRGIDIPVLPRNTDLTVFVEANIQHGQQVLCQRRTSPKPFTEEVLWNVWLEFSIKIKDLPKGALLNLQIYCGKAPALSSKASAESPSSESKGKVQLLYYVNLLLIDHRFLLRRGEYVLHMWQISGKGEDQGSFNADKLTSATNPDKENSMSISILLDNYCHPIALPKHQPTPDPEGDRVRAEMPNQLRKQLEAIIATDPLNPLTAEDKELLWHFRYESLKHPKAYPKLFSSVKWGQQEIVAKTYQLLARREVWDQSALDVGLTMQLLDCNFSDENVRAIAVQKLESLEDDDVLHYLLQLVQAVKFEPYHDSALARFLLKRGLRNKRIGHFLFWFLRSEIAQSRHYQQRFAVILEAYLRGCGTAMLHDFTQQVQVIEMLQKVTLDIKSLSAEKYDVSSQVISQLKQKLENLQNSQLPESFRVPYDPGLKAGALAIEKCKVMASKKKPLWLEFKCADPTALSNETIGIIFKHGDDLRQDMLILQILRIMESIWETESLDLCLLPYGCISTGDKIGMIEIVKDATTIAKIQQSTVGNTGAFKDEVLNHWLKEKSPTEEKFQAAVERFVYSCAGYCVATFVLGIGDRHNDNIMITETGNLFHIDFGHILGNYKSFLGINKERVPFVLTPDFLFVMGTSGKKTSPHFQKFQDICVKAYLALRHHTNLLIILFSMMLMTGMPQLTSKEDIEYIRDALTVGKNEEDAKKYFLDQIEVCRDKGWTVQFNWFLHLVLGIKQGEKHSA

SMILES | IC50 (PI3K γ (p110γ)) [µM] | IC50 (PI3K β (p110β/p85α)) [µM] | IC50 (PI3K δ) [µM] | IC50 (PI3K γ (p110γ); Table 4 (PI3K α inhibitors)) [µM] | IC50 (PI3K β (p110β/p85α); Table 4 (PI3K α inhibitors)) [µM] | IC50 (PI3K α (p110α/p85α); Table 4 (PI3K α inhibitors)) [µM] | IC50 (PI3K δ; Table 4 (PI3K α inhibitors)) [µM] | IC50 (PI3K α (p110α/p85α)) [µM]
Nc1nsc2ccc(-c3ccc4nccc(-c5ccncc5)c4c3)cc12 [Compound 12] | > 10 | > 10 | > 10 | – | – | – | – | > 10
Nc1nc2cc(-c3cc4nccc(-c5ccncc5)c4s3)ccc2o1 [Compound 14] | < 10 | > 10 | > 10 | – | – | – | – | < 10
Nc1nc2cccc(-c3ccc4nccc(-c5ccncc5)c4c3)c2s1 [Compound 17] | < 0.1 | < 1 | < 1 | – | – | – | – | < 0.1
Nc1noc2ccc(-c3ccc4nccc(-c5ccncc5)c4c3)cc12 [Compound 18] | < 10 | > 10 | > 10 | – | – | – | – | < 10
CC(=O)Nc1cn2cc(-c3ccc4nccc(-c5ccncc5)c4c3)ccc2n1 [Compound 19] | > 10 | > 10 | > 10 | – | – | – | – | > 10
CN1CCN(c2ccnc3ccc(-c4ccc5oc(N)nc5c4)cc23)CC1 [Compound 21] | < 10 | < 10 | < 10 | – | – | – | – | < 1
Nc1nc2cc(-c3ccc4ncnc(NC5CCOCC5)c4c3)ccc2o1 [Compound 24] | < 0.1 | < 1 | < 0.1 | – | – | – | – | < 0.1
Nc1nc2cc(-c3c[nH]c4nccc(-c5ccncc5)c34)ccc2o1 [Compound 25] | < 10 | > 10 | > 10 | – | – | – | – | < 10
CN1CCN(c2cc(-c3ccnc4ccc(-c5ccc6oc(N)nc6c5)cc34)ccn2)CC1 [Compound 30] | < 0.1 | – | < 0.1 | – | – | – | – | < 0.1
Nc1nc2cc(-c3ccc4nccc(-c5cccnc5)c4c3)ccc2o1 [Compound 31] | < 0.1 | – | < 0.1 | – | – | – | – | < 0.1
Nc1nc2cc(-c3ccc4nccc(NC5CCOCC5)c4c3)ccc2o1 [Compound 32] | < 10 | – | > 10 | – | – | – | – | < 10
CN1CCC(Oc2ncnc3ccc(-c4ccc5oc(N)nc5c4)cc23)CC1 [Compound 34] | < 1 | – | < 1 | – | – | – | – | < 0.1
Nc1nc2cc(-c3ccc4ncc(-c5cn[nH]c5)n4c3)ccc2o1 [Compound 38] | < 0.1 | – | < 0.1 | – | – | – | – | < 0.1
CN1CCN(c2cc(-c3cnc4ccc(-c5ccc6oc(N)nc6c5)cn34)ccn2)CC1 [Compound 43] | < 0.1 | – | < 0.1 | – | – | – | – | < 0.1
Nc1nc2cc(-c3ccc4ncc(-c5ccc(N6CCOCC6)nc5)n4c3)ccc2o1 [Compound 51] | < 1 | < 1 | < 1 | – | – | – | – | < 0.1
Nc1nc2cc(-c3ccc4ncc(N5CCOCC5)n4c3)ccc2o1 [Compound 53] | > 10 | > 10 | > 10 | – | – | – | – | < 10
Nc1nc2cc(-c3ccc4ncc(-c5cccnc5)n4n3)ccc2o1 [Compound 58] | < 0.1 | < 0.1 | < 0.1 | – | – | – | – | < 0.1
Nc1nc2ccc(-c3ccc4ncn(C5CCOCC5)c(=O)c4c3)cc2o1 [Compound 63] | > 10 | > 10 | > 10 | – | – | – | – | < 10
O=C(c1cnc2ccc(-c3cnc4[nH]ncc4c3)cn12)N1CCOCC1 [Compound 492] | < 10 | < 10 | < 10 | – | – | – | – | –
Cc1ncc(-c2ccc3ncc(C(=O)N4CCOCC4)n3c2)c2cn[nH]c12 [Compound 530] | > 10 | > 10 | – | – | – | – | – | < 0.1
O=C(c1cnc2ccc(-c3ccnc4[nH]ncc34)cn12)N1CCOCC1 [Compound 532] | > 10 | > 10 | > 10 | – | – | – | – | –
Cc1ncc(-c2ccc3ncc(C(=O)N4C5CCC4COC5)n3c2)c2cn[nH]c12 [Compound 538] | > 10 | > 10 | – | – | – | – | – | < 0.1
C[C@H]1CN(C2CN(c3cnc4ccc(-c5ccc6oc(N)nc6c5)nc4n3)C2)CCN1C [Compound 572] | – | – | – | > 10 | > 10 | < 0.1 | – | –
CC(C)N1CCN(C2CN(c3cnc4ccc(-c5ccc6oc(N)nc6c5)nc4n3)C2)CC1 [Compound 628] | – | – | – | > 10 | > 10 | – | > 10 | –

Continued, in another order:

IC50 (PI3K γ (p110γ)) [µM] | IC50 (PI3K β (p110β/p85α)) [µM] | IC50 (PI3K δ) [µM] | IC50 (PI3K γ (p110γ); Table 4 (PI3K α inhibitors)) [µM] | IC50 (PI3K β (p110β/p85α); Table 4 (PI3K α inhibitors)) [µM] | IC50 (PI3K α (p110α/p85α); Table 4 (PI3K α inhibitors)) [µM] | IC50 (PI3K δ; Table 4 (PI3K α inhibitors)) [µM] | SMILES | IC50 (PI3K α (p110α/p85α)) [µM]
< 0.1 | < 1 | < 10 | – | – | – | – | CN1CCN(c2ncnc3ccc(-c4ccc5oc(N)nc5c4)cc23)CC1 [Compound 23] | < 0.1
< 1 | – | < 1 | – | – | – | – | Nc1nc2cc(-c3ccc4nccc(NCCN5CCOCC5)c4c3)ccc2o1 [Compound 33] | < 0.1
> 10 | > 10 | > 10 | – | – | – | – | Nc1nc2cc(-c3ccc4ncn(C5CCOCC5)c4c3)ccc2o1 [Compound 48] | < 10
< 10 | < 1 | > 10 | – | – | – | – | Nc1nc2cc(-c3ccc4ncc(N5CCOCC5)n4n3)ccc2o1 [Compound 57] | < 1
< 0.1 | < 0.1 | < 1 | – | – | – | – | Nc1nc2cc(-c3ccc4ncc(-c5cn[nH]c5)n4n3)ccc2o1 [Compound 59] | < 0.1
> 10 | > 10 | > 10 | – | – | – | – | Nc1nc2cc(-c3cnc4ncc(-c5ccncc5)n4c3)ccc2o1 [Compound 61] | > 10
> 10 | – | > 10 | – | – | – | – | CC(=O)N1CCC(n2cnc3ccc(-c4ccc5oc(N)nc5c4)cc3c2=O)CC1 [Compound 66] | < 10
> 10 | – | > 10 | – | – | – | – | CS(=O)(=O)N1CCC(n2cnc3ccc(-c4ccc5oc(N)nc5c4)cc3c2=O)CC1 [Compound 67] | < 1
< 1 | < 10 | < 10 | – | – | – | – | Nc1nc2cc(-c3cn4c(-c5ccncc5)cnc4cn3)ccc2o1 [Compound 68] | < 0.1
< 1 | < 10 | < 10 | – | – | – | – | Nc1nc2cc(-c3cn4c(-c5cn[nH]c5)cnc4cn3)ccc2o1 [Compound 69] | < 1
< 0.1 | < 0.1 | < 0.1 | – | – | – | – | Nc1nc2cc(-c3ccc4nccc(-c5ccncc5)c4c3)ccc2s1 [Compound 70] | < 0.1
< 0.1 | < 10 | < 1 | – | – | – | – | Nc1nc2cc(-c3ccc4ncc(-c5ccncc5)nc4c3)ccc2o1 [Compound 71] | < 0.1
> 10 | < 10 | > 10 | – | – | – | – | CCN1CCC(n2cnc3ccc(-c4ccc5oc(N)nc5c4)cc3c2=O)CC1 [Compound 73] | < 1
> 10 | > 10 | > 10 | – | – | – | – | CN1CCN(c2nc3cc(-c4ccc5oc(N)nc5c4)ccc3c(=O)n2C)CC1 [Compound 79] | < 10
> 10 | > 10 | > 10 | – | – | – | – | Cn1c(N2CCOCC2)nc2cc(-c3ccc4oc(N)nc4c3)ccc2c1=O [Compound 80] | < 1
< 10 | < 1 | – | – | – | – | – | CN1CCN([C@H]2CCN(c3cnc4ccc(-c5ccc6oc(N)nc6c5)cc4n3)C2)CC1 [Compound 381] | < 0.1
< 1 | < 10 | – | – | – | – | – | Nc1nc2cc(-c3ccc4ncc(C(=O)N5CC(N6CC[C@@H](O)C6)C5)n4c3)ccc2o1 [Compound 470] | < 0.1
> 10 | > 10 | > 10 | – | – | – | – | O=C(c1cnc2ccc(-c3cnc4cc[nH]c4c3)cn12)N1CCOCC1 [Compound 534] | –
> 10 | > 10 | > 10 | – | – | – | – | Cc1ncc(-c2ccc3ncc(C(=O)N4CCOCC4)n3c2)c2cc[nH]c12 [Compound 536] | –
– | – | – | < 1 | > 10 | < 0.1 | – | CS(=O)(=O)N1CCN(C2CN(c3cnc4ccc(-c5ccc6oc(N)nc6c5)nc4n3)C2)CC1 [Compound 559] | –
– | – | – | < 0.1 | – | < 0.1 | > 10 | Nc1nc2cc(-c3ccc4ncc(C5=CCOCC5)nc4n3)ccc2o1 [Compound 562] | –
– | – | – | < 0.1 | – | < 0.1 | > 10 | C[C@H]1COCCN1c1cnc2ccc(-c3ccc4oc(N)nc4c3)nc2n1 [Compound 566] | –
– | – | – | < 1 | < 0.1 | < 0.1 | – | CN1CCN(c2cnc3ccc(-c4ccc5oc(N)nc5c4)nc3c2)CC1 [Compound 575] | –
– | – | – | < 1 | > 10 | < 1 | – | CCN(CC)c1cnc2ccc(-c3ccc4oc(N)nc4c3)nc2n1 [Compound 577] | –
– | – | – | < 1 | < 0.1 | < 0.1 | – | C[C@@H]1CN(c2cnc3ccc(-c4ccc5oc(N)nc5c4)nc3n2)CCN1 [Compound 578] | –
– | – | – | < 1 | < 1 | < 0.1 | – | CC(C)N1CCN(c2cnc3ccc(-c4ccc5oc(N)nc5c4)nc3n2)CC1 [Compound 583] | –
– | – | – | < 0.1 | – | < 0.1 | > 10 | CCOC(=O)N1CCN(c2cnc3ccc(-c4ccc5oc(N)nc5c4)nc3c2)CC1 [Compound 587] | –
– | – | – | < 0.1 | – | < 0.1 | > 10 | Nc1nc2cc(-c3ccc4ncc(N5CCC(O)CC5)nc4n3)ccc2o1 [Compound 596] | –
– | – | – | < 1 | – | < 0.1 | < 1 | C[C@@H]1CN(C2CN(c3cnc4ccc(-c5ccc6oc(N)nc6c5)nc4c3)C2)CCN1 [Compound 607] | –
– | – | – | < 0.1 | – | < 0.1 | < 1 | C[C@@H]1COCCN1C1CN(c2cnc3ccc(-c4ccc5oc(N)nc5c4)nc3c2)C1 [Compound 617] | –
